Test results reported in patent US8815872B2, “Macrocyclics pyrimidines as aurora kinase inhibitors” (Merck Patent GmbH, priority 2008, dated 2014).
pIC50: −log10 of the molar value. Several values for one entry are separate records, joined by “and”; a condition that tells them apart may be missing. Identical values can stand only once. Like-named read-outs stand apart in the source and are kept apart here.

What was measured:
MiaPaca2 = assay: Cellular activity MiaPaca2; type: cell-based
Method: (§1) The susceptibility of a particular cell to treatment with the compounds according to the invention was determined by in vitro tests. Typically, a culture of the cell was combined with a compound according to the invention at various concentrations for a period of time that was sufficient to allow the active agents to induce cell death or to inhibit migration, usually between about one hour and one week. In vitro testing was carried out using cultivated cells from a biopsy sample. The viable cells remaining after the treatment then were counted.

Aurora B = Aurora B (Homo sapiens, UniProt Q96GD4); assay: Aurora B enzyme assay (Caliper); type: biochemical
Chain of Aurora B (Q96GD4 whole entry): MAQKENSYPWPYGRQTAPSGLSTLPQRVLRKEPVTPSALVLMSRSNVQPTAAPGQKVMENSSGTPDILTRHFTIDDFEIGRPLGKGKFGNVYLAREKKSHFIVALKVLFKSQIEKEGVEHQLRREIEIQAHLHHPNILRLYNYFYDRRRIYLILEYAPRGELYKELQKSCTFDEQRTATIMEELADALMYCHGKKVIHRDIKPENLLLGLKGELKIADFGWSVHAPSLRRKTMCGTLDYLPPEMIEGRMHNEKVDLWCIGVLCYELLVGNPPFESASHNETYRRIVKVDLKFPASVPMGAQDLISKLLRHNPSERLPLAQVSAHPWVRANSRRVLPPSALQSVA
Method: (§2) The Aurora and other kinase assays described here were performed on two Caliper Life Sciences systems, the LC3000 and the Desktop Profiler. These provide data on enzyme activity via measurement of the relative amounts of phosphorylated or unphosphorylated fluorescently labelled substrate peptide at the end of an enzymatic reaction. These different states of peptide are resolved by applying a potential difference across the sample. The presence of a charged phosphate group on the product (as opposed to the substrate) causes a different peptide mobility between the two peptides. This is visualized by excitation of a fluorescent label on the substrate and product peptides and represented as peaks within the analysis software.

Aurora A = biological target: T1, Aurora A (Homo sapiens, UniProt O14965); assay: Aurora A enzyme assay (Caliper LC3000 mobility shift); type: biochemical
T1 construct: N-terminal GST fusion with full length Aurora A (1-403 amino acids); purchased Carna Biosciences 05-101
T1 sequence (O14965 1-403): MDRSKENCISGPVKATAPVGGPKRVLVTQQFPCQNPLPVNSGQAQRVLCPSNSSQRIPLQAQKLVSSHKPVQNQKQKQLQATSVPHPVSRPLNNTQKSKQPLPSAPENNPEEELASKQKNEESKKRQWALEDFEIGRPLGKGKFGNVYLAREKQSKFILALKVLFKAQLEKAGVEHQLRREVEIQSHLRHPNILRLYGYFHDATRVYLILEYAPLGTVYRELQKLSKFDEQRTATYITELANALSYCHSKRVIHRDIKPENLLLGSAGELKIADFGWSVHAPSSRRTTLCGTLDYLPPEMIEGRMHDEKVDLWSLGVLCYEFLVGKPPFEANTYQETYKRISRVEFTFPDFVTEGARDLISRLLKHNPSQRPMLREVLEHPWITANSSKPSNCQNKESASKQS
Method: as §2
For example, in order to measure inhibitor activity of Aurora A inhibitors in the Caliper Life Sciences LC3000, a TTP Mosquito liquid handling instrument was used to place […] of an appropriate concentration of inhibitor in 100% DMSO (for a dose response curve calculation) into each well of a 384-well plate. To this reaction components were added to a final volume of 25 μl: • 0.067 ng/μl GST-Aurora A (Carna Biosciences 05-101. N-terminal GST fusion with full length Aurora A (1-403 amino acids), accession number NP_940835.1). • 15 μM ATP (Fluka, 02055) • 1 mM DTT (Sigma, D0632) • 1 mM MgC12 (Sigma, M1028) • 1 μM substrate peptide (sequence FITC-LRRASLG-(CONH2), synthesized by Tufts Peptide Synthesis service. • 100 mM HEPES pH 7.5 (Calbiochem, 391338) • 0.015% Brij-35 (Sigma, B4184)
The reaction was incubated for 90 min at 25° C., and then stopped by the addition of 70 μl of Stop buffer (100 mM HEPES pH 7.5, 0.015% Brij-35, 10 mM EDTA (Sigma, E7889)).
The plate was read on a Caliper LC 3000 in an Off-Chip mobility shift assay format, using the following parameters for a 12-sipper chip: screening pressure −1.8 psi, upstream voltage −2700, downstream voltage −1000. These conditions cause unphosphorylated substrate and phosphorylated product peptide to resolve as separate peaks allowing direct measurement of percentage of conversion of substrate to product. The percent conversion was plotted against concentration of inhibitor to produce a sigmoidal dose response curve, from which an IC50 was calculated using XLFit for Microsoft Excel.

A549 = assay: Cellular activity A549; type: cell-based
Method: as §1

[1] = biological target: kinases (not incl. Aurora); assay: Kinase inhibition profile (not incl. Aurora); type: biochemical; conditions: at 1 μM; hit means >79% inhibition
Method: as §2
The Desktop Profiler utilizes the same principal as the LC 3000 for calculating percentage conversion of a substrate to product. Caliper Life Sciences provided proprietary flash frozen pre-made 384 well plates containing selected kinases. Each column in the 384 well plate contained a particular selected kinase. A second plate, the ‘substrate plate’ contained a mix of fluorescently labeled peptide substrate and ATP. These were arranged in columns so that transfer for substrate plate to enzyme plate provided the correct enzyme with the correct substrate/ATP concentration.
Compounds were added to a thawed enzyme plate in the desired format, in single concentrations. Reactions were initiated by transfer of the ubstrate/ATP mix from the substrate plate. The enzyme plate was incubated for 90 mins at 25 °C. The reaction was stopped by addition of […] of Stop Buffer (100 mM HEPES pH 7.5, 0.015% Brij-35, 10 mM EDTA (Sigma, E7889)).
Plates were read in a manner identical to that of the LC3000, and the ratio between substrate and product peaks provided the activity of the enzyme in that well. This was best represented by a plate heat map which colors each well by percent inhibition as compared to positive and negative controls (no inhibitors and no ATP respectively).

| pIC50 (MiaPaca2; Homo sapiens, MIA PaCa-2) | pIC50 (Aurora B) | pIC50 (Aurora A) | pIC50 (A549; Homo sapiens) | Structure (SMILES) | also measured |
| --- | --- | --- | --- | --- | --- |
| 5.20 to 6.00 | 7.00 to 9.00 | 7.00 to 9.00 | 5.20 to 6.00 | NC(=O)[C@H]1[C@H]2C[C@H]3[C@H]1Nc1nc(ncc1F)Nc1cccc(c1)CNC(=O)N[C@@H]3C2 | ring closure, yield of all isomers (from NC(=O)[C@H]1[C@H]2C[C@@H]([C@H]1Nc1nc(Cl)ncc1F)[C@H](NC(=O)NCc1cccc(N)c1)C2, snar bond): 36.7% |
| 5.20 to 6.00 | 7.00 to 9.00 | 7.00 to 9.00 | 5.20 to 6.00 | NC(=O)[C@H]1[C@H]2C[C@H]3[C@H]1Nc1nc(ncc1F)Nc1cccc(c1)COC(=O)N[C@@H]3C2 | ring closure, yield of all isomers (from NC(=O)[C@H]1[C@H]2C[C@@H]([C@H]1Nc1nc(Cl)ncc1F)[C@H](NC(=O)OCc1cccc(N)c1)C2, snar bond): 3.3% |
| 6.00 to 7.00 | 7.00 to 9.00 | 7.00 to 9.00 | 6.00 to 7.00 | CN1CCN(c2ccc3cc2COC(=O)N[C@@H]2C[C@@H]4C[C@H]2[C@@H](Nc2nc(ncc2F)N3)[C@H]4C(N)=O)CC1 | ring closure, yield of all isomers (from CN1CCN(c2ccc(N)cc2COC(=O)N[C@@H]2C[C@@H]3C[C@H]2[C@@H](Nc2nc(Cl)ncc2F)[C@H]3C(N)=O)CC1, snar bond, HCl): 8.7% |
|  |  |  |  | CC(=O)N1Cc2cccc(c2)Nc2ncc(F)c(n2)N[C@@H]2[C@@H]3C[C@@H](C[C@H]3C1)[C@@H]2C(N)=O | ring closure, yield of all isomers (from CC(=O)N(Cc1cccc(N)c1)C[C@@H]1C[C@@H]2C[C@H]1[C@@H](Nc1nc(Cl)ncc1F)[C@H]2C(N)=O, snar bond): 45.4% |
|  |  |  |  | Fc1cnc2nc1NC1CCC(CC1)OCC=CCOc1cccc(c1)N2 | ring closure, yield of all isomers (from C=CCOc1cccc(Nc2ncc(F)c(NC3CCC(OCC=C)CC3)n2)c1, rcm bond, Grubbs 2nd generation, then Hoveyda-Grubbs 2nd generation, dichloromethane, 2.0 mM, 40.0 °C, 76.0 h): 2.7% and 5.9% |
|  |  |  |  | Fc1cnc2nc1NC1CCCC(C1)OCC=CCOc1cccc(c1)N2 (centres unmarked) | ring closure, yield of all isomers (from C=CCOc1cccc(Nc2ncc(F)c(NC3CCCC(OCC=C)C3)n2)c1, rcm bond, Grubbs 2nd generation, dichloromethane, 2.0 mM, 40.0 °C, 16.0 h): 1.5% |
|  |  |  |  | NC(=O)[C@H]1[C@@H]2CC3CNC(=O)c4cccc(c4)Nc4ncc(F)c(n4)N[C@@H]1[C@@H]3C2 (some centres unmarked) | ring closure, yield of all isomers (from CC(C)(C)OC(=O)Nc1cccc(C(=O)NCC2C[C@@H]3C[C@H]2[C@@H](Nc2nc(Cl)ncc2F)[C@H]3C(N)=O)c1, snar bond, TFA, 2 steps): 1.8% |
|  |  |  |  | NC(=O)[C@H]1[C@@H]2CC3CNS(=O)(=O)c4cccc(c4)Nc4ncc(F)c(n4)N[C@@H]1[C@@H]3C2 (some centres unmarked) | ring closure, yield of all isomers (from NC(=O)[C@H]1[C@@H]2CC(CNS(=O)(=O)c3cccc(N)c3)[C@@H](C2)[C@H]1Nc1nc(Cl)ncc1F, snar bond): 8.5% |
|  |  |  |  | NC(=O)[C@H]1[C@@H]2C[C@H]3CNC(=O)Cc4cccc(c4)Nc4ncc(F)c(n4)N[C@@H]1[C@@H]3C2 | ring closure, yield of all isomers (from NC(=O)[C@H]1[C@@H]2C[C@@H](CNC(=O)Cc3cccc(N)c3)[C@@H](C2)[C@H]1Nc1nc(Cl)ncc1F, snar bond, 2 steps): 7% |
|  | 7.00 to 9.00 | 7.00 to 9.00 |  | NC(=O)[C@H]1[C@@H]2CC3CNC(=O)c4cccc(c4)Nc4ncc(F)c(n4)N[C@@H]1[C@@H]3C2 (some centres unmarked) [drawing 259] | pIC50 (MiaPaca2; MiaPaca2): 5.20 to 6.00; Kinase Inhibition Profile (not incl. Aurora) # kinases hit/# kinases tested [1]: 1/76 at 1 μM; pIC50 (A549): 5.20 to 6.00 |
